Laboratory results taken from patent US5349127A, “Expression of herbicide metabolizing cytochromes P450” (priority 1992, dated 1994).
Blank lines part the entries; values can stand above or below the compound they belong to.

What was measured:
[1] = tested on: S. lividans pCAO200SU1-FeS-B#9; assay: Sulfonylurea metabolism by washed cell suspension (Examples 6-9); format: in vitro ADME, Streptomyces lividans; settings: substrate 10010
Description: (§1) Herbicides and their metabolites are measured by HPLC as described by Romesser et al., BBRC 140: 650-659 (1986), herein incorporated by reference, except that 0.1% H3 PO4 is used in both solvents. Chromatographic identity and quantitation of the herbicides and their resulting metabolites is determined by comparing them chromatographically with authentic standard compounds. Identity of the resulting metabolites is also confirmed by UV spectroscopy.
A 100 ml culture of S. griseolus ATCC 11796 in sporulation broth and a 50 ml culture of S. lividans transformed with pCAO400 in YEME broth were prepared and incubated for 24 hours as described. At that time, the S. griseolus culture was split into two 50 ml aliquots into two separate flasks and 25 ml of fresh sporulation broth was added to each and 9 mg of […] was added to one of these cultures to induce cytochrome P450SU1 expression. Fresh YEME broth (25 ml) was added to the S. lividans culture. After an additional 6 hours growth at 30° C., the cells in each culture were harvested as described above, washed twice with MOPS (50 mM, pH 7.2) and recentrifuged. The cell pellets were resuspended in four cell volumes of MOPS (50 mM, pH 7.2) containing 0.2% glucose and about 100 μg/ml of 10004. These cell suspensions were incubated at 30° C. with shaking and aliqouts were taken at 2 and 5.5 hours. The supernatant of each aliquot was analyzed by HPLC and the concentrations of the sulfonylurea compound 10004 and its metabolite 10005 were determined.
S. lividans transformed respectively with pCAO200SU1-FeS-B#9, pCAO200SU#112and pCAO200 were cultured for 36 hours in 400 ml of YEME broth at 30° C. S. griseolus ATCC 11796 was similarly cultured in 400 ml of sporulation broth. Six hours before harvesting the cells, 150 ml of fresh YEME broth was added to the S. lividans cells, and the S. griseolus cells were split into two 200 ml cultures with 100 ml of fresh sporulation broth added to each. 10001 (36 mg) was added to one of the two S. griseolus cultures to induce cytochrome P450SU1. […]

[2] = tested on: S. lividans pCAO200SU1#12; assay: as above; format: in vitro ADME, Streptomyces lividans; settings: substrate 10010
Description: as §1, with “spectroscopy. […]” for “spectroscopy.”
S. lividans transformed respectively with pCAO200SU1-FeS-B#9, pCAO200SU#112and pCAO200 were cultured for 36 hours in 400 ml of YEME broth at 30° C. S. griseolus ATCC 11796 was similarly cultured in 400 ml of sporulation broth. Six hours before harvesting the cells, 150 ml of fresh YEME broth was added to the S. lividans cells, and the S. griseolus cells were split into two 200 ml cultures with 100 ml of fresh sporulation broth added to each. 10001 (36 mg) was added to one of the two S. griseolus cultures to induce cytochrome P450SU1. The cells were prepared as described above in Example 5 and the concentrations of the sulfonylurea compound 10006 and its metabolites 10007, 10008 or 10009 were determined.

S. lividans pCAO200 = assay: as above; format: in vitro ADME, Streptomyces lividans; settings: substrate 10010
[3] = tested on: leaves of transformed tobacco; assay: Metabolism of 10015 to 10014 in excised tobacco leaves (Example 20); format: in vitro ADME, Nicotiana tabacum
Description: Plants were grown from tobacco seed produced by self-pollinated transformed plants in Metro-Mix® 350 under 16 hour light (light intensity of 400 μEinsteins per second per square meter at pot level, 22° C. and 80% relative humidity) followed by 8 hours of dark (18° C. and 70 to 80% relative humidity) and watered three times daily with half strength Hoagland's solution. The presence of the cytochrome P450 protein in individual plants was confirmed by Western blot analysis before testing for sulfonylurea metabolism.
During growth, the tobacco plants produced leaves attached to the main stalk, none of which were of the same age or size. Removal of leaves attached to the main stalk of each plant forced the growth of lateral shoots which in turn produced the many leaves of similar size and age needed for the experiments. The leaves were excised under water with a scalpel. These leaves were transferred to cups with the uptake solution (20 ppm sulfonylurea in 1 mM potassium phosphate buffer, pH 7.0) and allowed to take up the solution through the cut leaf base for 2 hours in the light (200 μEinsteins per second per sq. meter) at 22° C. and 86% relative humidity. At the end of the uptake period, sample leaves were either frozen in liquid nitrogen and stored at -20° C. (designated '0 hour post-uptake samples') or transferred to cups with phosphate buffer alone for an additional 5 hours of incubation in the light before freezing (designated 5 hour post-uptake samples'). In the 10001 experiments some leaves were incubated for 21 hours post-uptake under continuous light (200 μEinsteins per second per square meter, 22° C., and 63% relative humidity).
Individual leaves were extracted with 30 ml acetone/water (80%/20% by volume) for 1 minute in a Sorvall® Omni-Mixer. The brei was centrifuged to remove the tissue debris. Acetone in the supernatant was removed under a stream of nitrogen. The resulting aqueous extract was acidified to pH 2 to 3 with sulfuric acid and then extracted three times with methylene chloride. The combined methylene chloride extracts were reduced to dryness by rotary evaporation at 30° to 40° C. The dry residue was dissolved in acetone for transfer to a vial. Once transferred the acetone was removed by evaporation under a stream of nitrogen. Before HPLC analysis the dry sample was redissolved in 1.0 ml of acetonitrile/water (25%/75%). HPLC separations were carried out on a Zorbax® ODS column (4.6 mm×250 man) at 45° C. with a flow rate of 1.4 ml per minute. […] 10015 and its metabolites were detected at 254 nm while ^14 C-10001 and its metabolites were detected with a Radiomatic Flo-One® detector. A diode array detector was used in separate experiments to obtain the absorbance spectra of the 10015 metabolite and an 10014 standard in the HPLC analysis of several extracts (HPLC method is described in Romesser et al., Biochem. Biophys. Res. Comm., 140:650-659 (1986)). Comparison of the metabolite absorbance spectrum with that of the 10014 confirmed the metabolite's identity.

Compound: COC(=O)c1ccccc1S(=O)(=O)NC(=O)Nc1nc(C)cc(C(=O)O)n1 [compound 10012, N-[(4-carboxy-6-methylpyrimidin-2yl)aminocarbonyl]-2-methoxycarbonylbenzenesulfonamide]
concentration in supernatant ([1]; 2 h): 2 µM
concentration in supernatant ([1]; 4 h): 12 µM
concentration in supernatant ([1]; 6 h): 20 µM
concentration in supernatant ([2]; 2 h): 0 µM
concentration in supernatant ([2]; 4 h): 0 µM
concentration in supernatant ([2]; 6 h): 0 µM
concentration in supernatant (S. lividans pCAO200; 2 h): 0 µM
concentration in supernatant (S. lividans pCAO200; 4 h): 0 µM
concentration in supernatant (S. lividans pCAO200; 6 h): 0 µM

10014 levels ([3]; AGS112 (control, no P450SU1), 0 hour post-uptake): 0 μg/leaf
10014 levels ([3]; AGS112 (control, no P450SU1), 5 hour post-uptake): 0 μg/leaf
10014 levels ([3]; Cab-SU131.5 (chloroplast directed), 0 hour post-uptake): 1.3 μg/leaf
10014 levels ([3]; Cab-SU131.5 (chloroplast directed), 5 hour post-uptake): 2.9 μg/leaf
10014 levels ([3]; SSU-SU111.5 (chloroplast directed), 0 hour post-uptake): 2.1 μg/leaf
10014 levels ([3]; SSU-SU111.5 (chloroplast directed), 5 hour post-uptake): 1.8 μg/leaf
10014 levels ([3]; SSU-SU121.3 (chloroplast directed), 0 hour post-uptake): 1.2 μg/leaf
10014 levels ([3]; SSU-SU121.3 (chloroplast directed), 5 hour post-uptake): 1.7 μg/leaf
10014 levels ([3]; SU18.15 (cytoplasm directed), 0 hour post-uptake): 0 μg/leaf
10014 levels ([3]; SU18.15 (cytoplasm directed), 5 hour post-uptake): 0 μg/leaf
10014 levels ([3]; SU18.8 (cytoplasm directed), 0 hour post-uptake): 0 μg/leaf
10014 levels ([3]; SU18.8 (cytoplasm directed), 5 hour post-uptake): 0 μg/leaf
10014 levels ([3]; W38, 20 ppm 10015 uptake 2 h, 0 hour post-uptake): 0 μg/leaf
10014 levels ([3]; W38, 20 ppm 10015 uptake 2 h, 5 hour post-uptake): 0 μg/leaf
Compound: COc1cc(OC)nc(NC(=O)NS(=O)(=O)c2cccc3c2S(=O)(=O)NC3)n1 [compound 10014, 2,3-dihydro-N-[(4,6-dimethoxypyrimidin-yl)aminocarbonyl]-1,2-benzisothiazol-7-sulfonamide-1,1-dioxide]
